The record followed here is BindingDB's records for doi:10.7270/Q2WS8RN8 (The Scripps Research Institute Molecular Screening Center, 2008).

This experiment deals with T1, Signal transducer and activator of transcription 1-alpha/beta (Homo sapiens, UniProt P42224).
T1 sequence (P42224 whole entry): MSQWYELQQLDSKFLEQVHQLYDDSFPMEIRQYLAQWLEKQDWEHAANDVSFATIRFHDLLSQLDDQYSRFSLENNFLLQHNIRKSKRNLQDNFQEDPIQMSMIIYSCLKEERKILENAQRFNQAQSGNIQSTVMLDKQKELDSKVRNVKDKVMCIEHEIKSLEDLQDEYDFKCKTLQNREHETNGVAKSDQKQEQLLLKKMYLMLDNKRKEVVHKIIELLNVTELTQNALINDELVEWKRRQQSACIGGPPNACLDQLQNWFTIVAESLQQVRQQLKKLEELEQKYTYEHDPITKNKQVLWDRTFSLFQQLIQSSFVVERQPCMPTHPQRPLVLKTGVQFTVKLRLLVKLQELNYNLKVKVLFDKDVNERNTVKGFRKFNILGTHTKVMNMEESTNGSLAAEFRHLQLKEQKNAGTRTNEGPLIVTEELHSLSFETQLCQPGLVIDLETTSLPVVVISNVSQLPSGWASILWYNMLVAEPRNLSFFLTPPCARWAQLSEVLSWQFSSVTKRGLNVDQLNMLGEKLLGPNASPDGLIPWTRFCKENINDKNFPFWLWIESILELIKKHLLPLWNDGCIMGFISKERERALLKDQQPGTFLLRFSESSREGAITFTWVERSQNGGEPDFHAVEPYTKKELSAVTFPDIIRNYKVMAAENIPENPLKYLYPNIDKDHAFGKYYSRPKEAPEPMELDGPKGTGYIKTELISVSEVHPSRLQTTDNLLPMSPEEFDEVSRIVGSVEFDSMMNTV
As to the kind of experiment: PubChem AID 1396.

SMILES strings stand for the structures.

As for `CCN1C(=O)C(=CNNC(=O)c2ccncc2)C(=O)N(CC)C1=S` [SMR000218837], the midpoint of inhibition, the IC50, lay at 4.42 µM. This counts as single-digit micromolar.

The term IC50 denotes the concentration that inhibits the measured activity by half. A higher IC50 goes with weaker potency in that assay.
